Source: US7932262B2 (Novartis AG, priority 2006, dated 2011)

Key:
PC-3 cells = experiment: Cell Proliferation Assay (Cell Titer Glo), PC-3 cell line; format: cell-based; conditions: Homo sapiens, PC-3, cell proliferation, PC3 cells; read-out: CPEC50 PC3
Outline: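 PC-3 cells, 1000 cells/well, left to adhere 3-5 h, then exposed for 3 days at 37° C to compounds as 1:3 serial dilutions from 500× DMSO stocks diluted in growth medium. Medium then replaced with fresh medium and viability read by Cell Titer Glo luminescence.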

PDK1 kinase = biological target: T1, PDK1 kinase (Homo sapiens, UniProt O15530); experiment: PDK1 Kinase Alpha Screen Assay; format: biochemical; conditions: PDK1 Kinase Alpha Screen Assay; read-out: PDK1 IC50
T1 sequence (O15530 1-556): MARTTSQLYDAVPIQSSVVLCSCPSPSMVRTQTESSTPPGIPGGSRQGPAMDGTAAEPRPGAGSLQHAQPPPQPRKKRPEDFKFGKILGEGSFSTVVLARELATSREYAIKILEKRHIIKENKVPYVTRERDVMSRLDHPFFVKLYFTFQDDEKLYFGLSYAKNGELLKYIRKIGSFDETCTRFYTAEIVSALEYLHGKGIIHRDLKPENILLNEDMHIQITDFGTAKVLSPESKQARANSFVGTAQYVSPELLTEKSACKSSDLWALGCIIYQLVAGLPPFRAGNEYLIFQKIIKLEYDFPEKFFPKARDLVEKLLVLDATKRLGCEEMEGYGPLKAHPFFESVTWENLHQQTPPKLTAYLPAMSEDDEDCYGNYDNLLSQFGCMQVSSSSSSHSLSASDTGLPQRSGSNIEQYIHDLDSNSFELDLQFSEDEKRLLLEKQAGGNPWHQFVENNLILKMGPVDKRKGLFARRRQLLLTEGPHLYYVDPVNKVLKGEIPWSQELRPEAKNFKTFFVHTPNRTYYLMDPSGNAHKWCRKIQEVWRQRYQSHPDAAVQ
Outline: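 Biotinylated PDK1-4 peptide (50 nM) phosphorylated by PDK1 with 10 uM ATP in pH 7.5 Tris/MgCl2/DTT buffer, 2.5% DMSO, for 3-18 hours. EDTA stop, then AlphaScreen detection with phospho-(Ser/Thr) PKA substrate antibody and protein A/streptavidin beads after overnight room-temperature development.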

A2780 cells = experiment: Cell Proliferation Assay (Cell Titer Glo), A2780; format: cell-based; conditions: Homo sapiens; cell proliferation, A2780 cells; read-out: CPEC50 A2780
Outline: (§1)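 Cells seeded at 1000/well, allowed to adhere 3-5 h, then exposed to DMSO-dissolved compounds for 3 days at 37° C., 5% CO2. Medium replaced before Cell Titer Glo addition; luminescence read after 10 min.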

PC3MM cells = experiment: Cell Proliferation Assay (Cell Titer Glo), PC3MM; format: cell-based; conditions: cell proliferation, PC3MM cells; read-out: CPEC50 PC3MM
Outline: as §1

NS(=O)(=O)c1ccc(Nc2ncc3cccc(OC4CCNCC4)c3n2)cc1 [Compound 718, 4-(8-(piperidin-4-yloxy)quinazolin-2-ylamino)benzenesulfonamide]
< 5 µM: EC50 (PC-3 cells) | IC50 (PDK1 kinase) | EC50 (A2780 cells) | EC50 (PC3MM cells)

CC(C)N1CCC(Oc2cccc3cnc(Nc4ccc(S(N)(=O)=O)cc4)nc23)CC1 [Compound 725, 4-(8-(1-isopropylpiperidin-4-yloxy)quinazolin-2-ylamino)benzenesulfonamide]
< 5 µM: EC50 (PC-3 cells) | IC50 (PDK1 kinase) | EC50 (A2780 cells) | EC50 (PC3MM cells)

NS(=O)(=O)c1ccc(Nc2ncc3cccc(O[C@@H]4CN5CCC4CC5)c3n2)cc1 [Compound 744, (S)-4-(8-(quinuclidin-3-yloxy)quinazolin-2-ylamino)benzenesulfonamide]
< 5 µM: EC50 (PC-3 cells) | IC50 (PDK1 kinase) | EC50 (A2780 cells) | EC50 (PC3MM cells)

CN1C2CCC1CC(Oc1cccc3cnc(Nc4ccc(S(N)(=O)=O)cc4)nc13)C2 (centres unmarked) [Compound 749, 4-(8-(8-methyl-8-azabicyclo[3.2.1]octan-3-yloxy)quinazolin-2-ylamino)benzenesulfonamide]
< 5 µM: EC50 (PC-3 cells) | IC50 (PDK1 kinase) | EC50 (A2780 cells) | EC50 (PC3MM cells)

NS(=O)(=O)c1ccc(Nc2ncc3ccc(OC4CCNCC4)cc3n2)cc1 [Compound 750, 4-(7-(piperidin-4-yloxy)quinazolin-2-ylamino)benzenesulfonamide]
< 5 µM: EC50 (PC-3 cells) | IC50 (PDK1 kinase) | EC50 (A2780 cells) | EC50 (PC3MM cells)

CN1CCC(Oc2ccc3cnc(Nc4ccc(S(N)(=O)=O)cc4)nc3c2)CC1 [Compound 763, 4-(7-(1-methylpiperidin-4-yloxy)quinazolin-2-ylamino)benzenesulfonamide]
< 5 µM: EC50 (PC-3 cells) | IC50 (PDK1 kinase) | EC50 (A2780 cells) | EC50 (PC3MM cells)

O=S(=O)(c1ccc(Nc2ncc3cccc(OC4CCNCC4)c3n2)cc1)N1CCOCC1 [Compound 771, N-(4-(morpholinosulfonyl)phenyl)-8-(piperidin-4-yloxy)quinazolin-2-amine]
< 5 µM: EC50 (PC-3 cells) | IC50 (PDK1 kinase) | EC50 (A2780 cells) | EC50 (PC3MM cells)

CC(C)N1CCC(Oc2cccc3cnc(Nc4ccc(S(=O)(=O)N5CCOCC5)cc4)nc23)CC1 [Compound 772, 8-(1-isopropylpiperidin-4-yloxy)-N-(4-(morpholinosulfonyl)-phenyl)quinazolin-2-amine]
< 5 µM: EC50 (PC-3 cells) | IC50 (PDK1 kinase) | EC50 (A2780 cells) | EC50 (PC3MM cells)

CC(C)NS(=O)(=O)c1ccc(Nc2ncc3cccc(OC4CCNCC4)c3n2)cc1 [Compound 779, N-isopropyl-4-(8-(piperidin-4-yloxy)quinazolin-2-ylamino)benzenesulfonamide]
< 5 µM: EC50 (PC-3 cells) | IC50 (PDK1 kinase) | EC50 (A2780 cells) | EC50 (PC3MM cells)

COCCNS(=O)(=O)c1ccc(Nc2ncc3cccc(OC4CCNCC4)c3n2)cc1 [Compound 780, N-(2-methoxyethyl)-4-(8-(piperidin-4-yloxy)quinazolin-2-ylamino)benzenesulfonamide]
< 5 µM: EC50 (PC-3 cells) | IC50 (PDK1 kinase) | EC50 (A2780 cells) | EC50 (PC3MM cells)

O=S(=O)(NC1CC1)c1ccc(Nc2ncc3cccc(OC4CCNCC4)c3n2)cc1 [Compound 781, N-cyclopropyl-4-(8-(piperidin-4-yloxy)quinazolin-2-ylamino)benzenesulfonamide]
< 5 µM: EC50 (PC-3 cells) | IC50 (PDK1 kinase) | EC50 (A2780 cells) | EC50 (PC3MM cells)

CC(C)N1CCC(Oc2ccc3cnc(Nc4ccc(S(N)(=O)=O)cc4)nc3c2)CC1 [Compound 794, 4-(7-(1-isopropylpiperidin-4-yloxy)quinazolin-2-ylamino)benzenesulfonamide]
< 5 µM: EC50 (PC-3 cells) | IC50 (PDK1 kinase) | EC50 (A2780 cells) | EC50 (PC3MM cells)

CC(C)N1CCC(c2c(O)ccc3cnc(Nc4ccc(S(N)(=O)=O)cc4)nc23)CC1 [Compound 795, 4-(7-hydroxy-8-(1-isopropylpiperidin-4-yl)quinazolin-2-ylamino)benzenesulfonamide]
< 5 µM: EC50 (PC-3 cells) | IC50 (PDK1 kinase) | EC50 (A2780 cells) | EC50 (PC3MM cells)

CC(C)NC(=O)c1ccc(Nc2ncc3cccc(OC4CCN(C(C)C)CC4)c3n2)cc1 [Compound 797, N-isopropyl-4-(8-(1-isopropylpiperidin-4-yloxy)quinazolin-2-ylamino)benzamide]
< 5 µM: EC50 (PC-3 cells) | IC50 (PDK1 kinase) | EC50 (A2780 cells) | EC50 (PC3MM cells)

Cn1cc(-c2ccc3cnc(Nc4ccc(S(N)(=O)=O)cc4)nc3c2)cn1 [Compound 799, 4-(7-(1-methyl-1H-pyrazol-4-yl)quinazolin-2-ylamino)benzenesulfonamide]
< 5 µM: EC50 (PC-3 cells) | IC50 (PDK1 kinase) | EC50 (A2780 cells) | EC50 (PC3MM cells)

NS(=O)(=O)c1ccc(Nc2ncc3ccc(-c4cccnc4F)cc3n2)cc1 [Compound 800, 4-(7-(2-fluoropyridin-3-yl)quinazolin-2-ylamino)benzenesulfonamide]
< 5 µM: EC50 (PC-3 cells) | IC50 (PDK1 kinase) | EC50 (A2780 cells) | EC50 (PC3MM cells)

O=S(=O)(NCCN1CCCC1)c1ccc(Nc2ncc3cccc(OC4CCNCC4)c3n2)cc1 [Compound 810, 4-(8-(piperidin-4-yloxy)quinazolin-2-ylamino)-N-(2-(pyrrolidin-1-yl)ethyl)benzenesulfonamide]
< 5 µM: EC50 (PC-3 cells) | IC50 (PDK1 kinase) | EC50 (A2780 cells) | EC50 (PC3MM cells)

CC(C)CN1CCC(Oc2cccc3cnc(Nc4ccc(S(N)(=O)=O)cc4)nc23)CC1 [Compound 816, 4-(8-(1-isobutylpiperidin-4-yloxy)quinazolin-2-ylamino)benzenesulfonamide]
< 5 µM: EC50 (PC-3 cells) | IC50 (PDK1 kinase) | EC50 (A2780 cells) | EC50 (PC3MM cells)

COCCNc1ccc(-c2cccc3cnc(Nc4ccc(S(N)(=O)=O)cc4)nc23)cn1 [Compound 825, 4-(8-(6-(2-methoxyethylamlno)pyridin-3-yl)quinazoln-2-ylamino)benzenesulfonamide]
< 5 µM: EC50 (PC-3 cells) | IC50 (PDK1 kinase) | EC50 (A2780 cells) | EC50 (PC3MM cells)

CN1CCN(c2ccc(-c3cccc4cnc(Nc5ccc(S(N)(=O)=O)cc5)nc34)cn2)CC1 [Compound 827, 4-(8-(6-(4-methylpiperazin-1-yl)pyridin-3-yl)quinazolin-2-ylamino)benzenesulfonamide]
< 5 µM: EC50 (PC-3 cells) | IC50 (PDK1 kinase) | EC50 (A2780 cells) | EC50 (PC3MM cells)

NS(=O)(=O)c1ccc(Nc2ncc3cccc(-c4ccc(NCCN5CCCC5)nc4)c3n2)cc1 [Compound 830, 4-(8-(6-(2-(pyrrolidin-1-yl)ethylamino)pyridin-3-yl)-quinazolin-2-ylamino)benzenesulfonamide]
< 5 µM: EC50 (PC-3 cells) | IC50 (PDK1 kinase) | EC50 (A2780 cells) | EC50 (PC3MM cells)

CN1CCC(Nc2ccc3cnc(Nc4ccc(S(N)(=O)=O)cc4)nc3c2)CC1 [Compound 843, 4-(7-(1-methylpiperidin-4-ylamino)quinazolin-2-ylamino)benzenesulfonamide]
< 5 µM: EC50 (PC-3 cells) | IC50 (PDK1 kinase) | EC50 (A2780 cells) | EC50 (PC3MM cells)

NS(=O)(=O)c1ccc(Nc2ncc3cc(Br)cc(OC4CCNCC4)c3n2)cc1 [Compound 846, 4-(6-bromo-8-(piperidin-4-yloxy)quinazolin-2-ylamino)benzenesulfonamide]
< 5 µM: EC50 (PC-3 cells) | IC50 (PDK1 kinase) | EC50 (A2780 cells) | EC50 (PC3MM cells)
